Several values for one entry are separate records, joined by “and”; a condition that tells them apart may be missing. Equal values may be shown once.
Key:
Assay type in all cases: cell-based, human
[1] = test system: senescent A549 cells (etoposide-induced); assay: Nuclei count senolytic assay, therapy-induced senescence (TIS) model, senescent cells; conditions: Senescent cells, mean
Procedure, shortened: (§1)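 A549 cells made senescent with 100 μM etoposide for 48 h then 3 days in normal media; non-senescent A549 as control. Cells were exposed for 72 h to a 10-point […] range (10 μM–10 nM) in triplicate, then fixed, Hoechst-stained and imaged for nuclei count.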

[2] = test system: senescent IMR90 ER:RAS cells (4-OHT-induced); assay: Nuclei count (Hoechst, high content imaging) senolytic assay, oncogene-induced senescence (OIS) model, senescent cells; conditions: for Mean % Cell Survival: mean n=3 (Fig 3C)
Procedure, shortened: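 Compared non-senescent and senescent IMR90 ER:RAS cultures (senescence induced with 4-OHT at 100 nM final); cells seeded 24 h before dosing, then exposed 72 h to compounds, 10-point […] range 10 μM–10 nM, triplicate. Fixed, Hoechst-stained, nuclei counted by high-content imaging; drop versus untreated reflects cell death.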

[3] = test system: non-senescent control A549 cells; assay: Nuclei count senolytic assay, TIS model, non-senescent control cells; conditions: Control cells, mean
Procedure, shortened: as §1

## C=Cc1c(C)c2cc3nc(cc4[nH]c(cc5nc(cc1[nH]2)C(C)=C5CCC(=O)O)c(CCC(=O)OC)c4C)[C@@]1(C)C3=CC=C(C(=O)OC)[C@H]1C(=O)OC [Verteporfin, verteporfin, reference compound]
[1]; log (dose) [M] -5
  Mean % Cell Survival: 118.472%
[1]; log (dose) [M] -5.33
  Mean % Cell Survival: 98.5505%
[1]; log (dose) [M] -5.66
  Mean % Cell Survival: 115.47%
[1]; log (dose) [M] -6
  Mean % Cell Survival: 116.11%
[1]; log (dose) [M] -6.33
  Mean % Cell Survival: 114.215%
[1]; log (dose) [M] -6.66
  Mean % Cell Survival: 107.66%
[1]; log (dose) [M] -7
  Mean % Cell Survival: 100.361%
[1]; log (dose) [M] -7.33
  Mean % Cell Survival: 89.0589%
[1]; log (dose) [M] -7.66
  Mean % Cell Survival: 106.923%
[1]; log (dose) [M] -8
  Mean % Cell Survival: 100.292%
[2]; Senescent cells, log (dose) [M] -5, individual replicates, SUP FIG 4C
  % Cell Survival: 93.9435% and 91.1111% and 111.269%
[2]; Senescent cells, log (dose) [M] -5.33, individual replicates, SUP FIG 4C
  % Cell Survival: 81.5612% and 99.085% and 87.8238%
[2]; Senescent cells, log (dose) [M] -5.66, individual replicates, SUP FIG 4C
  % Cell Survival: 114.536% and 91.2418% and 98.8342%
[2]; Senescent cells, log (dose) [M] -6, individual replicates, SUP FIG 4C
  % Cell Survival: 68.7752% and 100.915% and 109.974%
[2]; Senescent cells, log (dose) [M] -6.33, individual replicates, SUP FIG 4C
  % Cell Survival: 85.8681% and 55.5556% and 108.549%
[2]; Senescent cells, log (dose) [M] -6.66, individual replicates, SUP FIG 4C
  % Cell Survival: 84.253% and 107.32% and 95.2073%
[2]; Senescent cells, log (dose) [M] -7, individual replicates, SUP FIG 4C
  % Cell Survival: 86.541% and 87.8431% and 90.544%
[2]; Senescent cells, log (dose) [M] -7.33, individual replicates, SUP FIG 4C
  % Cell Survival: 95.5585% and 120.915% and 93.9119%
[2]; Senescent cells, log (dose) [M] -7.66, individual replicates, SUP FIG 4C
  % Cell Survival: 98.3849% and 123.268% and 87.8238%
[2]; Senescent cells, log (dose) [M] -8, individual replicates, SUP FIG 4C
  % Cell Survival: 86.541% and 113.464% and 76.6839%
[2]; Senescent, log (dose) [M] -5, 72 h
  Mean % Cell Survival: 98.7747%
[2]; Senescent, log (dose) [M] -5.33, 72 h
  Mean % Cell Survival: 89.49%
[2]; Senescent, log (dose) [M] -5.66, 72 h
  Mean % Cell Survival: 101.537%
[2]; Senescent, log (dose) [M] -6, 72 h
  Mean % Cell Survival: 93.2215%
[2]; Senescent, log (dose) [M] -6.33, 72 h
  Mean % Cell Survival: 83.3243%
[2]; Senescent, log (dose) [M] -6.66, 72 h
  Mean % Cell Survival: 95.5935%
[2]; Senescent, log (dose) [M] -7, 72 h
  Mean % Cell Survival: 88.3094%
[2]; Senescent, log (dose) [M] -7.33, 72 h
  Mean % Cell Survival: 103.462%
[2]; Senescent, log (dose) [M] -7.66, 72 h
  Mean % Cell Survival: 103.159%
[2]; Senescent, log (dose) [M] -8, 72 h
  Mean % Cell Survival: 92.2297%
[2]; Senescent, log (dose) [M] -5
  % Cell Survival: 113.825% and 103.66% and 137.931%
[2]; Senescent, log (dose) [M] -5.33
  % Cell Survival: 79.9635% and 100.131% and 115.557%
[2]; Senescent, log (dose) [M] -5.66
  % Cell Survival: 102.923% and 109.085% and 134.403%
[2]; Senescent, log (dose) [M] -6
  % Cell Survival: 99.1474% and 91.7647% and 157.418%
[2]; Senescent, log (dose) [M] -6.33
  % Cell Survival: 98.8429% and 106.993% and 136.808%
[2]; Senescent, log (dose) [M] -6.66
  % Cell Survival: 92.57% and 116.536% and 113.873%
[2]; Senescent, log (dose) [M] -7
  % Cell Survival: 103.898% and 73.5294% and 123.657%
[2]; Senescent, log (dose) [M] -7.33
  % Cell Survival: 62.363% and 86.2092% and 118.605%
[2]; Senescent, log (dose) [M] -7.66
  % Cell Survival: 100.061% and 91.4379% and 129.27%
[2]; Senescent, log (dose) [M] -8
  % Cell Survival: 96.6504% and 87.3856% and 116.84%
[3]; log (dose) [M] -5
  Mean % Cell Survival: 113.771%
[3]; log (dose) [M] -5.33
  Mean % Cell Survival: 108.79%
[3]; log (dose) [M] -5.66
  Mean % Cell Survival: 94.7872%
[3]; log (dose) [M] -6
  Mean % Cell Survival: 92.365%
[3]; log (dose) [M] -6.33
  Mean % Cell Survival: 96.0501%
[3]; log (dose) [M] -6.66
  Mean % Cell Survival: 101.194%
[3]; log (dose) [M] -7
  Mean % Cell Survival: 90.846%
[3]; log (dose) [M] -7.33
  Mean % Cell Survival: 108.359%
[3]; log (dose) [M] -7.66
  Mean % Cell Survival: 100.589%
[3]; log (dose) [M] -8
  Mean % Cell Survival: 97.9379%

Source: article PMC10257182, “Discovery of senolytics using machine learning” (Nature Communications, 2023)
